# Measured values published in BindingDB's records for doi:10.7270/Q2H993J6 (Pcmd, 2008).
# pIC50: −log10 of the molar value.
# Target: Coagulation factor XI (Homo sapiens, UniProt P03951)
# Assay: factor XIa inhibitor concentration-response – biochemical, hits from 1536-well screen, dose response (AID 846)
# Conditions: pH 7.4; 23 °C
# Coagulation factor XI, sequence (P03951 19-387 limits assumed): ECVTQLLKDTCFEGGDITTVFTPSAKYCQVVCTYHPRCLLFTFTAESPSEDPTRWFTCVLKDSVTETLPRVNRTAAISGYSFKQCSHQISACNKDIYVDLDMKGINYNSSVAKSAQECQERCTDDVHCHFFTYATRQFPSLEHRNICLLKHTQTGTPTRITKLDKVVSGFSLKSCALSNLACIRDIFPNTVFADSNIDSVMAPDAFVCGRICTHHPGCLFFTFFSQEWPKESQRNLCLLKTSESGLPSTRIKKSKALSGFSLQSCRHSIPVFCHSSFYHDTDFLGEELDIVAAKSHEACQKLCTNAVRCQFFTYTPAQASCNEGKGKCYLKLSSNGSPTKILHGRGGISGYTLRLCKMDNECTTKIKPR
# Coagulation factor XI, sequence (P03951 388-625 limits assumed): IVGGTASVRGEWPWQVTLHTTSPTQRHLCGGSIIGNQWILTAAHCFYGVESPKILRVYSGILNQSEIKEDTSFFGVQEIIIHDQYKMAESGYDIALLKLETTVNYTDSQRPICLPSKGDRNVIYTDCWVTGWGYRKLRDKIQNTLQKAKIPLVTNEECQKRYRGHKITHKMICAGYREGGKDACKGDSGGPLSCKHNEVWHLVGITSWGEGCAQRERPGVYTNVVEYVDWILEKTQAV
row,Compound,pIC50
1,CCc1ccc[n+](-c2[n-]c(=O)sc2C=NNC(N)=O)c1,< 4.30
2,O=C(Oc1ccc2c(=O)c(Cl)coc2c1)c1ccncc1 [SMR000014947],5.21
3,C=C(C)CNC(=S)NN=C(C)c1cccc(NC(C)=O)c1 [SMR000384154],< 4.30
4,CCCCCCCc1c(O)nc(SCCN(C)C)[nH]c1=O [SMR000414668],4.85
5,COC(=O)c1c(NC(=O)COC(=O)Cn2cnc3ccccc32)sc(C)c1C [SMR000062436],< 4.30
6,O=S(=O)([N-]c1nc2ccccc2nc1-[n+]1ccn(Cc2ccccc2)c1)c1ccc(Cl)cc1 [(4-chlorophenyl)sulfonyl-[3-[3-(phenylmethyl)imidazol-3-ium-1-yl]quinoxalin-2-yl]azanide],< 4.30
7,"COc1ccc(CSc2nc(C)cc(C)c2S(C)(=O)=O)cc1 [2-[(4-methoxybenzyl)sulfanyl]-4,6-dimethyl-3-pyridinyl methyl sulfone]",< 4.30
8,COc1ccc(C=Nn2c(C)cc(C)cc2=O)cc1 [SMR000269659],< 4.30
9,NC(=O)NOCc1ccccc1 [phenylmethoxyurea],< 4.30
10,C=CCn1c(Cc2cccs2)nnc1SCC(=O)NCc1ccco1 [SMR000153108],< 4.30
11,N#C/C(=C\c1cccnc1)c1nc2ccccc2[nH]1 [(E)-2-(1H-Benzoimidazol-2-yl)-3-pyridin-3-yl-acrylonitrile],< 4.30
12,N#Cc1ccsc1NC(=O)CN(Cc1ccccc1)Cc1ccccc1 [2-[bis(phenylmethyl)amino]-N-(3-cyano-2-thiophenyl)acetamide],< 4.30
13,O=C(NCc1ccccc1)c1ccc(Cl)nc1,< 4.30
14,COc1ccccc1NS(=O)(=O)c1ccc(O)c(C(=O)OCC(=O)c2ccc(Cl)cc2Cl)c1 [SMR000369457],< 4.30
15,"O=C(Nc1ccc(Cl)cc1)Nc1nc(-c2ccccc2O)cs1 [1-(4-chlorophenyl)-3-[4-(2-hydroxyphenyl)-1,3-thiazol-2-yl]urea]",< 4.30
16,O=C(Cn1c(-c2ccccn2)nc2ccccc21)NN=Cc1cccnc1 [2-(2-pyridin-2-ylbenzimidazol-1-yl)-N-(pyridin-3-ylmethylideneamino)acetamide],< 4.30
17,CCOC(=O)Cc1csc(NC(=O)c2sc3nc4ccc(CC)cc4cc3c2N)n1 [MLS000556627],< 4.30
18,COc1ccc([N+](=O)[O-])cc1NC(=O)CC1S/C(=N\c2cccc(C)c2C)N(N=Cc2cccc(OC)c2OC)C1=O (centres undefined),< 4.30
19,CONC(=N)c1nonc1N [MLS001049218],< 4.30
